Laboratory results taken from patent US11021721B2, “Genetically engineered Pseudomonas strains capable of metabolizing ethylene glycol and its metabolic intermediates” (Alliance for Sustainable Energy, LLC, priority 2017, dated 2021).
Values joined by “and” are separate entries in the source; they are usually repeats but may differ in a detail not shown here. Identical values can stand only once.

What was measured:
P. putida KT2440 [1] = experiment: C-limited chemostat cultivation on acetate with co-feed of ethylene glycol or glyoxylate; type: cell-based, Pseudomonas putida KT2440; conditions: for increase of biomass yield on acetate: 30 mM co-feed with 30 mM acetate, compared to control with only acetate; for reducing equivalents generated through co-metabolism: co-feed with acetate, assuming all glyoxylate is metabolized through the glyoxylate shunt
Description: FIG. 14 depicts co-feeding of P. putida KT2440 in C-limited chemostat cultivations on mineral medium with 30 mM acetate supplemented with 30 mM ethylene glycol (black), 30 mM glyoxylate (green), or no co-feed (grey). FIG. 14A depicts a comparison of biomass (OD600) at steady state. FIG. 14B depicts extracellular metabolites at steady state. […] FIG. 14C depicts flux analysis of redox equivalent-yielding metabolism of ethylene glycol (upper value) or glyoxylate (lower value) in mM gCDW^−1 h^−1. Cells were grown at a dilution rate of 0.2. Error bars indicate the deviation from the mean (n=2).
To investigate the applicability of ethylene glycol as a co-substrate, P. putida KT2440 was cultured in carbon-limited chemostat cultivations with acetate as carbon source, and either ethylene glycol or glyoxylate as an energy source. Acetate was chosen because it induces the glyoxylate shunt enzymes.
Energy and redox equivalent homeostasis is essential for efficient growth of a bacterial cell.

P. putida KT2440 [2] = experiment: Competitive inhibition assay, glycolaldehyde and glyoxal full-factorial growth test (Bioscreen C); type: cell-based, Pseudomonas putida KT2440
Description: FIG. 13 depicts synergistic inhibitory effect of glycolaldehyde and glyoxal. Growth assays were conducted in 100 well plates in the Bioscreen C MBR analyzer. Individual wells of the plate were filled with 200 μL of M9 medium-containing 20 mM glucose and the respective concentration of glycolaldehyde and glyoxal according to a 3-level full-factorial design (Table 3), growth rates expressed as means±SEM (n=3). Bars labeled with different letters indicate statistical significance of different runs (p<0.05; one-way ANOVA followed by Tukey's post hoc honest significance difference test).
Toxicity tests and competitive inhibition assays were performed using Bioscreen C MBR analyzers (Growth Curves US, Piscataway, N.J.). For toxicity tests, overnight cultures of P. putida KT2440 were grown in M9 medium containing 20 mM glucose starting at an OD600 of 0.05-0.1 at 30° C. with shaking at 225 rpm in baffled shake flasks until the OD600 reached about 1.0-1.5. Cells were subsequently concentrated by centrifugation and inoculated into wells of Bioscreen C microplates at an initial OD600=0.05. Each well contained a total volume of […] M9 medium, 20 mM glucose, and inhibitors at various concentrations. Incubations were performed at 30° C. with maximum shaking. Absorbance readings were taken every 15 min. For competitive inhibition assays, individual wells of the plate were filled with 200 μL of M9 medium containing 20 mM glucose and a respective concentration of glycolaldehyde and glyoxal according to full-factorial test run results of which are presented in Table 3 and depicted in graphical form in FIG. 13. Initial OD600 was set at 0.1 by using an overnight culture of wild type P. putida KT2440. Samples were incubated as described above. Operation of the Bioscreen C MBR and collection of turbidity measurements (OD420-580) were computer automated with EZ Experiment.
The toxicity effects of ethylene glycol, glyoxylate, glycolaldehyde, glyoxal and oxalate on P. putida KT2440 were examined by monitoring growth in the Bioscreen C instrument (a microplate reader which monitors turbidity over time) in the presence of M9 minimal medium containing 20 mM glucose and the inhibitor, see FIG. 20. The average OD of at least 5 wells was plotted in FIG. 9. […] Glyoxal, an oxidation product of glycolaldehyde, is also very inhibitory to P. putida KT2440 growth at a 5 mM concentration where a long lag phase is observed. At 7.5 mM, glyoxal is lethal to the cells. Therefore, glycolaldehyde and glyoxal are intermediate metabolites which result in ethylene glycol toxicity on P. putida KT2440. Glycolaldehyde exerts combinational inhibitory effect with other compounds, such as 5-HMF, furfural, and methylglyoxal. The combinational inhibitory effect of glycolaldehyde and glyoxal was determined by running three level full-factorial growth experiments, see FIG. 13 and Table 3.

P. putida KT2440 [3] = experiment: Toxicity tests in Bioscreen C: growth in M9 minimal medium with 20 mM glucose and inhibitor; type: cell-based, Pseudomonas putida KT2440; conditions: 20 mM glucose
Description: Toxicity tests and competitive inhibition assays were performed using Bioscreen C MBR analyzers (Growth Curves US, Piscataway, N.J.). For toxicity tests, overnight cultures of P. putida KT2440 were grown in M9 medium containing 20 mM glucose starting at an OD600 of 0.05-0.1 at 30° C. with shaking at 225 rpm in baffled shake flasks until the OD600 reached about 1.0-1.5. Cells were subsequently concentrated by centrifugation and inoculated into wells of Bioscreen C microplates at an initial OD600=0.05. Each well contained a total volume of 300 M9 medium, 20 mM glucose, and inhibitors at various concentrations. Incubations were performed at 30° C. with maximum shaking. Absorbance readings were taken every 15 min. […] Initial OD600 was set at 0.1 by using an overnight culture of wild type P. putida KT2440. Samples were incubated as described above. Operation of the Bioscreen C MBR and collection of turbidity measurements (OD420-580) were computer automated with EZ Experiment.
Growth curves were obtained from Bioscreen C analyzers (Growth Curves US, Piscataway, N.J.). Overnight cultures of P. putida KT2440 were grown in M9 medium containing 20 mM glucose starting at an OD600 of 0.05-0.1, 30° C., 225 rpm (baffled shake flask) until the OD600 reached ˜1.0-1.5. Cells were concentrated by centrifugation and inoculated into wells of Bioscreen C microplates containing various inhibitors and concentrations in the presence of 20 mM glucose at and additional OD600=0.05 in a total volume of 300 μL. Incubations were performed at 30° C. and absorbance readings were taken every 15 min. Operation of the Bioscreen C and collection of turbidity measurements (OD420-580) were computer automated with EZ Experiment. Data was collected and exported to Microsoft Excel spreadsheets for analysis.

[4] = molecular target: tartronate semialdehyde reductase (GlxR); conditions: cited from earlier work
P. putida KT2440 [5] = conditions: on glucose, co-feed of formate, similar conditions; cited from earlier work

## OCCO [Ethylene glycol, ethylene glycol]
P. putida KT2440 [1]
  increase of biomass yield on acetate: 29.6±1.1%
  reducing equivalents generated through co-metabolism: 27.3±2.6 mmol (g CDW)^−1 h^−1

## O=CC=O [Glyoxal, glyoxal]
P. putida KT2440 [2]; in the presence of 2 mM glyoxal
  Growth Rate: 0.25 h⁻¹ and 0.297 ± 0.001 h⁻¹
P. putida KT2440 [2]; run 1: glycolaldehyde 0 mM, glyoxal 1.0 mM
  Growth Rate: 0.297 h⁻¹
P. putida KT2440 [2]; run 2: glycolaldehyde 0 mM, glyoxal 1.5 mM
  Growth Rate: 0.280 h⁻¹
P. putida KT2440 [2]; run 3: glycolaldehyde 0 mM, glyoxal 2.0 mM
  Growth Rate: 0.246 h⁻¹
P. putida KT2440 [3]
  concentration inhibitory to growth with long lag phase: 5 mM
  lethal concentration: 7.5 mM

## O=C([O-])C(=O)[O-].[Na+].[Na+] [sodium oxalate]
P. putida KT2440 [3]
  concentration not significantly inhibitory to growth: up to 50 mM

## O=CCO [Glycolaldehyde, glycolaldehyde]
P. putida KT2440 [2]; in the presence of 2 mM glycolaldehyde
  Growth Rate: 0.22 h⁻¹ and 0.291 ± 0.001 h⁻¹
P. putida KT2440 [2]; run 13: glycolaldehyde 1.0 mM, glyoxal 0 mM
  Growth Rate: 0.281 h⁻¹
P. putida KT2440 [2]; run 14: glycolaldehyde 1.5 mM, glyoxal 0 mM
  Growth Rate: 0.221 h⁻¹
P. putida KT2440 [2]; run 15: glycolaldehyde 2 mM, glyoxal 0 mM
  Growth Rate: 0.218 h⁻¹
P. putida KT2440 [3]
  concentration that completely inhibited growth: 4 mM
  concentration that inhibits growth: 3 mM

## O=C(O)CO [glycolate]
[4]; inhibition of GlxR
  Ki: 3 mM

## O=C(O)C(=O)CO [hydroxypyruvate]
[4]
  maximal velocity as GlxR substrate, fold lower than tartronate semialdehyde: 10 fold

## O=CC(=O)O [glyoxylate]
P. putida KT2440 [1]
  increase of biomass yield on acetate: 22.2±8.2%
  reducing equivalents generated through co-metabolism: 14.4±0.5 mmol (g CDW)^−1 h^−1

## O=CO [formate]
P. putida KT2440 [5]
  reducing equivalents at maximal achievable biomass yield: 7.6±0.9 mmol (g CDW)^−1 h^−1
